Entries after “also recorded” stand apart in the source; their conditions may differ.
Experiment: Phase I dose escalation study: safety, tolerability, DLT and MTD
Assay type: in vivo

## Cc1cccc2c1NC(=O)[C@@H](NC(=O)[C@H](CCC(F)(F)F)[C@H](CCC(F)(F)F)C(N)=O)N=C2c1cccc(F)c1 [BMS-986115]
Arm A QD 1.5 mg (N = 7)
  Diarrhoea (drug related AE, Grade 3 and 4): 2 (29) n (%)
  Diarrhoea (drug related AE, all grades): 6 (86) n (%)
  Dry mouth (drug related AE, all grades): 0 n (%)
  Dry skin (drug related AE, all grades): 1 (14) n (%)
  Dysgeusia (drug related AE, all grades): 0 n (%)
  Dyspepsia (drug related AE, all grades): 0 n (%)
  Dysphonia (drug related AE, all grades): 1 (14) n (%)
  Fatigue (drug related AE, Grade 3 and 4): 1 (14) n (%)
  Fatigue (drug related AE, all grades): 4 (57) n (%)
  Flatulence (drug related AE, all grades): 0 n (%)
  Hypocalcaemia (drug related AE, Grade 3 and 4): 0 n (%)
  Hypocalcaemia (drug related AE, all grades): 1 (14) n (%)
  Hypokalaemia (drug related AE, Grade 3 and 4): 1 (14) n (%)
  Hypokalaemia (drug related AE, all grades): 2 (29) n (%)
  Hyponatraemia (drug related AE, Grade 3 and 4): 1 (14) n (%)
  Hyponatraemia (drug related AE, all grades): 1 (14) n (%)
  Hypophosphataemia (drug related AE, Grade 3 and 4): 2 (29) n (%)
  Hypophosphataemia (drug related AE, all grades): 4 (57) n (%)
  Ileus (drug related AE, Grade 3 and 4): 0 n (%)
  Increased upper airway secretion (drug related AE, all grades): 0 n (%)
  Laryngeal pain (drug related AE, all grades): 2 (29) n (%)
  Leucocytosis (drug related AE, Grade 3 and 4): 0 n (%)
  Mouth ulceration (drug related AE, all grades): 0 n (%)
  Nausea (drug related AE, Grade 3 and 4): 2 (29) n (%)
  Nausea (drug related AE, all grades): 5 (71) n (%)
  Pruritus (drug related AE, Grade 3 and 4): 0 n (%)
  Pruritus (drug related AE, all grades): 2 (29) n (%)
  Pulmonary embolism (drug related AE, Grade 3 and 4): 1 (14) n (%)
  Rash (drug related AE, all grades): 2 (29) n (%)
  Rash maculopapular (drug related AE, all grades): 0 n (%)
  Sinusitis (drug related AE, all grades): 0 n (%)
  Urticaria (drug related AE, Grade 3 and 4): 0 n (%)
  Vision blurred (drug related AE, all grades): 1 (14) n (%)
  Vomiting (drug related AE, Grade 3 and 4): 0 n (%)
  Vomiting (drug related AE, all grades): 4 (57) n (%)
  Weight decreased (drug related AE, all grades): 1 (14) n (%)
Arm A QD 1.5 mg, 6 DLT evaluable patients
  No. of patients with DLTs: 1
Arm A QD 2.0 mg
  Description of DLT: Gr 3 ileus; Gr 3 nausea; Gr 3 pruritus/urticaria; also recorded: G3 ileus; also recorded: G3 nausea; also recorded: G3 pruritus/urticaria
Arm A QD 2.0 mg (N = 7)
  Abdominal distension (drug related AE, all grades): 0 n (%)
  Abdominal pain (drug related AE, Grade 3 and 4): 0 n (%)
  Abdominal pain (drug related AE, all grades): 1 (14) n (%)
  Blood creatinine increased (drug related AE, all grades): 1 (14) n (%)
  Colitis (drug related AE, Grade 3 and 4): 0 n (%)
  Cough (drug related AE, Grade 3 and 4): 1 (14) n (%)
  Cough (drug related AE, all grades): 1 (14) n (%)
  Decreased Appetite (drug related AE, Grade 3 and 4): 0 n (%)
  Decreased Appetite (drug related AE, all grades): 5 (71) n (%)
  Dehydration (drug related AE, Grade 3 and 4): 0 n (%)
  Dehydration (drug related AE, all grades): 1 (14) n (%)
  Dermatitis acneiform (drug related AE, all grades): 0 n (%)
  Diarrhoea (drug related AE, Grade 3 and 4): 1 (14) n (%)
  Diarrhoea (drug related AE, all grades): 5 (71) n (%)
  Dry mouth (drug related AE, all grades): 1 (14) n (%)
  Dry skin (drug related AE, all grades): 1 (14) n (%)
  Dysgeusia (drug related AE, all grades): 1 (14) n (%)
  Dyspepsia (drug related AE, all grades): 1 (14) n (%)
  Dysphonia (drug related AE, all grades): 3 (43) n (%)
  Fatigue (drug related AE, Grade 3 and 4): 0 n (%)
  Fatigue (drug related AE, all grades): 4 (57) n (%)
  Flatulence (drug related AE, all grades): 0 n (%)
  Hypocalcaemia (drug related AE, Grade 3 and 4): 0 n (%)
  Hypocalcaemia (drug related AE, all grades): 0 n (%)
  Hypokalaemia (drug related AE, Grade 3 and 4): 2 (29) n (%)
  Hypokalaemia (drug related AE, all grades): 2 (29) n (%)
  Hyponatraemia (drug related AE, Grade 3 and 4): 0 n (%)
  Hyponatraemia (drug related AE, all grades): 0 n (%)
  Hypophosphataemia (drug related AE, Grade 3 and 4): 3 (43) n (%)
  Hypophosphataemia (drug related AE, all grades): 3 (43) n (%)
  Ileus (drug related AE, Grade 3 and 4): 1 (14) n (%)
  Increased upper airway secretion (drug related AE, all grades): 0 n (%)
  Laryngeal pain (drug related AE, all grades): 0 n (%)
